Test results taken from patent publication US20090176664A1, “High density peptide arrays containing kinase or phosphatase substrates” (priority 2007, published 2009).

Tested on: Src and Abl kinases
Assay: Kinase inhibition assay with different kinase inhibitors on peptide array with Abl and Src peptide substrates
Assay type: biochemical
Details: FIG. 23; Src and Abl kinases plus one of three inhibitors
Procedure: Activity is measured using peptide arrays with Abl and Src peptide substrates.

COc1cc(Nc2c(C#N)cnc3cc(OCCCN4CCN(C)CC4)c(OC)cc23)c(Cl)cc1Cl [SKI606]
specificity of the kinase inhibitor for their respective kinase: expected specificity
